pKi: −log10 of the molar value. One block for each molecule: values may come before it.
How the values were obtained:
[1] = tested on: Huvec; test: bFGF Huvec proliferation; format: cell-based, human; conditions: Homo sapiens, HUVEC
[2] = biological target: T1, PDGFRβ (Homo sapiens, UniProt P09619); test: PAE-PDGFRβ phosphorylation in PAE-PDGFRB cells assay; format: cell-based; conditions: PAE cells overexpressing human PDGFRβ, PDGF-BB stimulated; read-out: PAE PDGFR autophos IC50 (nM) AVG
T1 construct: expressed in transfected cells; host or cells: porcine aorta endothelial (PAE)-PDGFRβ cells
Experimental: PAE-PDGFRβ Phosphorylation in PAE-PDGFRB Cells Assay
This assay determines the ability of a test compound to inhibit the autophosphorylation of PDGFRβ in porcine aorta endothelial (PAE)-PDGFRβ cells. PAE cells that overexpress human PDGFRβ were used in this assay. The cells were cultured in Ham's F12 media supplemented with 10% fetal bovine serum (FBS) and 400 ug/ml G418. Twenty thousands cells were seeded in each well of a 96-well plate in 50 μL of growth media and allowed to attach for 6 hours at 37° C. Cells were then exposed to the starvation media (Ham's F12 media supplemented with 0.1% FBS) for 16 hours. After the starvation period was over, 10 μL of test agent in 5% DMSO in starvation media were added to the test wells and 10 μL of the vehicle (5% DMSO in starvation media) were added into the control wells. The final DMSO concentration in each well was 0.5%. Plates were incubated at 37° C. for 1 hour and the cells were then stimulated with 1 μg/mL PDGF-BB (R & D System) in the presence of 2 mM Na3VO4 for 8 minutes. The cells were washed once with 1 mm Na3VO4 in HBSS and lysed by adding 50 μL per well of lysis buffer. One hundred μL of dilution buffer were then added to each well and the diluted cell lysate was transferred to a 96-well goat ant-rabbit coated plate (Pierce), which was pre-coated with Rabbit anti Human PDGFRβ antibody (Santa Cruz). The plates were incubated at room temperature for 2 hours and washed seven times with 1% Tween 20 in PBS. HRP-PY20 (Santa Cruz) was diluted and added to the plate for a 30-minute incubation. Plates were then washed again and TMB peroxidase substrate (Kirkegaard & Perry) was added for a 10-minute incubation. One hundred μL of 0.09 N H2SO4 was added into each well of the 96-well plate to stop the reaction. Phosphorylation status was assessed by spectrophotometer reading at 450 nm. IC50 values were calculated by curve fitting using a four-parameter analysis.

[3] = tested on: human umbilical vein endothelial cells (HUVEC); test: HUVEC+VEGF proliferation assay; format: cell-based; conditions: Homo sapiens, HUVEC; VEGF 6 ng/mL, 72 h, MTT
Experimental: HUVEC+VEGF Proliferation Assay
This assay determines the ability of a test compound to inhibit the growth factor-stimulated proliferation of human umbilical vein endothelial cells (“HUVEC”). HUVEC cells (passage 3–4; Clonetics, Corp.) were thawed into EGM2 culture medium (Clonetics Corp) in T75 flasks. Fresh EGM2 medium was added to the flasks 24 hours later. Four or five days later, cells were exposed to another culture medium (F12K medium supplemented with 10% fetal bovine serum (FBS), 60 μg/mL endothelial cell growth supplement (ECGS), and 0.1 mg/mL heparin). Exponentially-growing HUVEC cells were used in experiments thereafter. Ten to twelve thousand HUVEC cells were plated in 96-well dishes in 100 μl of rich, culture medium (described above). The cells were allowed to attach for 24 hours in this medium. The medium was then removed by aspiration and 105 μl of starvation media (F12K+1% FBS) was added to each well. After 24 hours, 15 μl of test agent dissolved in 1% DMSO in starvation medium or this vehicle alone was added into each treatment well; the final DMSO concentration was 0.1%. One hour later, 30 μl of VEGF (30 ng/mL) in starvation media was added to all wells except those containing untreated controls; the final VEGF concentration was 6 ng/mL. Cellular proliferation was quantified 72 hours later by MTT dye reduction, at which time cells were exposed for 4 hours MTT (Promega Corp.). Dye reduction was stopped by addition of a stop solution (Promega Corp.) and absorbance at 595 nm was determined on a 96-well spectrophotometer plate reader.

[4] = biological target: T2, unphosphorylated VEGF-R2Δ50 (FLVK) (Homo sapiens, UniProt P35968, DEL940-989/E990V); test: VEGF-R2 coupled spectrophotometric assay, unphosphorylated VEGF-R2Δ50 (FLVK); format: biochemical; conditions: unphosphorylated VEGF-R2Δ50; for inhibition at 0.05 µM: 50 nM compound, read-out: FLVK (% inh @ 50 nM)
T2 construct: VEGF-R2Δ50 contains residues 806–939 and 990–1171; made in house; host or cells: baculovirus/insect cell system
How it was run: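 Ki obtained by Morrison-equation fitting of activity at varied compound levels; reaction started with 5–40 nM enzyme. Non-autophosphorylated kinase construct (insect cell-expressed) with 3 mM ATP, 20 mM poly(E4Y1), 60 mM MgCl2 plus 2 mM MnCl2, pH 7.5 HEPES; NADH loss at 340 nm via PK/LDH coupling.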

T1 sequence (P09619 33-1106): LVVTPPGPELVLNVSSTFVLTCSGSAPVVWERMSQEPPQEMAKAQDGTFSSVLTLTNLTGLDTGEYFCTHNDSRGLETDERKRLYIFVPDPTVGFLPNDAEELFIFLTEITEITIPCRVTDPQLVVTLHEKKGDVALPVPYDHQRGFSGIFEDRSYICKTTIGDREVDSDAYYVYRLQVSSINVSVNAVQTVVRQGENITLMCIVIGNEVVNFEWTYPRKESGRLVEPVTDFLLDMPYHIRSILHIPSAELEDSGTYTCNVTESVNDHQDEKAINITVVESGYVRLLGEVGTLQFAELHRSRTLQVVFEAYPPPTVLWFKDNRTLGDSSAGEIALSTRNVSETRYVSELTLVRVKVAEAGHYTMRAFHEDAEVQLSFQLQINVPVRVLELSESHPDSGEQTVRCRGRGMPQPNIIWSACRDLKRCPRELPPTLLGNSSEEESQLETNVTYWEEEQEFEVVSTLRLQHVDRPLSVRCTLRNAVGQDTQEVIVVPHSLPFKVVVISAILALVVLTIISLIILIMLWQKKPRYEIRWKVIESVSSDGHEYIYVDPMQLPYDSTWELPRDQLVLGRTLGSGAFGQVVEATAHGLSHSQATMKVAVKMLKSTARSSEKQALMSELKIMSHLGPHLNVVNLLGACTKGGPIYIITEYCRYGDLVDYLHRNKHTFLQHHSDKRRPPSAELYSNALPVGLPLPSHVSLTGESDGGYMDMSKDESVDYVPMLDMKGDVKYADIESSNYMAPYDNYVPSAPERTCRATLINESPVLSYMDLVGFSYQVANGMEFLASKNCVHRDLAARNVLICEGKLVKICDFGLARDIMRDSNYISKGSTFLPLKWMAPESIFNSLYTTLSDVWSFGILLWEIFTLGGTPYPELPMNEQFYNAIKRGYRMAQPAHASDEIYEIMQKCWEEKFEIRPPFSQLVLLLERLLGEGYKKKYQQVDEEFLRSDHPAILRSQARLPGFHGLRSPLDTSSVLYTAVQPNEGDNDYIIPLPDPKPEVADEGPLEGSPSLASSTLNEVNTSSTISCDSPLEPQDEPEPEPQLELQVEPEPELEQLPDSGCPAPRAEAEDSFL
T2 sequence (P35968 with tags, fused parts or gaps DEL940-989/E990V limits assumed): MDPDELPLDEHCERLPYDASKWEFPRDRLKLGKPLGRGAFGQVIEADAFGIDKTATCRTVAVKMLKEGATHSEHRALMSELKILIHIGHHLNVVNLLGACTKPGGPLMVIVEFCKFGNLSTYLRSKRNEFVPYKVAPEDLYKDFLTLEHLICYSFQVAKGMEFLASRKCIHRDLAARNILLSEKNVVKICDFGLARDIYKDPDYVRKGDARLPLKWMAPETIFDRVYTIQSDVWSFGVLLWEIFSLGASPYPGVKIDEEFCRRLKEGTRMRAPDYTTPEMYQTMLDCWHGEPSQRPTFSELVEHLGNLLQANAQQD

SMILES: COC[C@@H]1CCCN1C(=O)c1cc2nccc(Oc3ccc4c(C(=O)NCC(C)C)c(C)oc4c3)c2s1 (stereo in doubt) [Example 85, 6[2-(2-Methoxymethyl-pyrrolidine-1-carbonyl)-thieno[3,2-b]pyridin-7-yloxy]-2-methyl-benzofuran-3-carboxylic acid isobutyl amide]
- IC50 [1]: 6990 nM
- IC50 [2]: 27.3 nM
- IC50 [3]: 3.92 nM
- inhibition at 0.05 µM [4]: 83%
- pKi [4]: 8.77

SMILES: CCc1oc2cc(Oc3ccnc4cc(C(=O)N5CC[C@@H](OC)C5)sc34)ccc2c1C(=O)NC [Example 14, 6-(2-[3-methoxypyrrolidine-1-carbonyl]thieno[3,2-b]pyridin-7-yloxy)-2-ethylbenzofuran-3-carboxylic acid methylamide]
- IC50 [1]: 287 nM
- IC50 [3]: 9.4 nM
- inhibition at 0.05 µM [4]: 81%
- pKi [4]: 8.84

SMILES: CNC(=O)c1c(C)n(C)c2cc(Oc3ccnc4cc(C(=O)N5CCC[C@H]5CO)sc34)ccc12 [Example 16, 6-[2-(2-Hydroxymethyl-pyrrolidine-1-carbonyl)-thieno[3,2-b]pyridin-7-yloxy]-1,2-dimethyl-1H-indole-3-carboxylic acid methylamide]
- IC50 [1]: 1000 nM
- IC50 [3]: 10 nM
- inhibition at 0.05 µM [4]: 46%
- pKi [4]: 8.09

SMILES: CNC(=O)c1c(C)[nH]c2cc(Oc3ccnc4cc(C(=O)N5CC[C@@H](O)C5)sc34)ccc12 [Example 24, 6-[2-(3-Hydroxy-pyrrolidine-1-carbonyl)-thieno[3,2-b]pyridin-7-yloxy]-2-methyl-1H-indole-3-carboxylic acid methylamide]
- IC50 [1]: 10000 nM
- IC50 [3]: 32 nM
- inhibition at 0.05 µM [4]: 69%
- pKi [4]: 8.38

SMILES: Cc1c(C(=O)NCCCO)c2ccc(Oc3ccnc4cc(C(=O)N5CC[C@@H](O)C5)sc34)cc2n1C [Example 64, 6-[2-((R)-3-Hydroxy-pyrrolidine-1-carbonyl)-thieno[3,2-b]pyridin-7-yloxy]-1,2-dimethyl-1H-indole-3-carboxylic acid (3-hydroxy-propyl)-amide]
- IC50 [1]: 10000 nM
- IC50 [3]: 10 nM
- inhibition at 0.05 µM [4]: 64%
- pKi [4]: 7.93

Further lines, with some results ahead:

- IC50 [2]: 250 nM
- inhibition at 0.05 µM [4]: 95%
- pKi [4]: 9.38
SMILES: CO[C@@H]1CCN(C(=O)c2cc3nccc(Oc4ccc5c(C(=O)NC6CC6)c(C)oc5c4)c3s2)C1 [Example 89, 6-[2-(3-Methoxypyrrolidine-1-carbonyl)-thieno[3,2-b]pyridin-7-yloxy]-2-methyl-benzofuran-3-carboxylic acid cyclopropylamide]
- IC50 [1]: 5.2 nM

- inhibition at 0.05 µM [4]: 98%
SMILES: Cc1oc2cc(Oc3ccnc4ccsc34)ccc2c1C(=O)Nc1nnc(-c2ccccc2)s1 [Example 106, 2-Methyl-6-(thieno[3,2-b]pyridin-7-yloxy)-benzofuran-3-carboxylic acid (5-phenyl-[1,3,4]thiadiazol-2-yl)-amide]
- IC50 [1]: 638 nM
- IC50 [3]: 10 nM

- inhibition at 0.05 µM [4]: 84%
- pKi [4]: 8.92
SMILES: Cc1sc2cc(Oc3ccnc4cc(-c5nccn5C)sc34)ccc2c1C(=O)NCCCO [Example 118, 2-Methyl-6-{[2-(1-methyl-1H-imidazol-2-yl)thieno[3,2-b]pyridin-7-yl]oxy}benzo[b]thiophene-3-carboxylic acid 3-hydroxypropylamide]
- IC50 [1]: 736 nM
- IC50 [3]: 0.9 nM

- IC50 [2]: 609 nM
- inhibition at 0.05 µM [4]: 88%
- pKi [4]: 8.93
SMILES: CCc1sc2cc(Oc3ccnc4cc(C(=O)N5CC[C@@H](O)C5)sc34)ccc2c1C(=O)NC [Example 136, 2-Ethyl-6-[(2-{[(3R)-3-hydroxypyrrolidin-1-yl]carbonyl}thieno[3,2-b]pyridin-7-yl)oxy]benzo[b]thiophene-3-carboxylic acid methylamide]
- IC50 [3]: 10 nM

- IC50 [2]: 110 nM
- inhibition at 0.05 µM [4]: 85%
- pKi [4]: 9.11
SMILES: CCc1sc2cc(Oc3ccnc4cc(C(=O)N5CCC5)sc34)ccc2c1C(=O)NC [Example 138, 6-{[2-(Azetidin-1-ylcarbonyl)thieno[3,2-b]pyridin-7-yl]oxy}-2-ethylbenzo[b]thiophene-3-carboxylic acid methylamide]
- IC50 [3]: 9.9 nM
